Results as given in patent EP4786486A1, “PEPTIDES FOR TREATING CARDIAC DISEASES” (Universidad Complutense De Madrid, priority 2023, dated 2025).
Where no end group is shown, it is not given here.

Assays:
[1] = test system: minimal promoter of the human SCN5A gene; test: Luciferase promoter assay in hEK-293 cells, SCN5A; type: cell-based; settings: hEK-293 cells co-transfected with cDNA SEQ ID NO: 5; 48 hours after transfection
Experimental: (§1) 48 hours after transfection, luciferase assays were performed using the LightSwitch Luciferase Assay reagent, also from Active Motif, and a Berthold luminometer. All assays were performed in triplicate and each point represents the mean of each technical triplicate.

[2] = test system: minimal promoter of the human KCNJ2 gene; test: Luciferase promoter assay in hEK-293 cells, KCNJ2; type: cell-based; settings: hEK-293 cells co-transfected with cDNA SEQ ID NO: 5; 48 hours after transfection
Experimental: as §1

[3] = test system: murine model of CI with reduced ejection fraction (HFrEF); test: Murine model of CI (transverse aortic constriction): capacitance, INa and IK1 of dissociated cardiomyocytes; type: in vivo, mice
Description: A murine model of CI with reduced ejection fraction (HFrEF) was used to analyse the effect of SEQ ID NO: 3 on the decrease in INa and IK1 caused by electrical remodelling associated with Cl. The mice are subjected to transverse aortic constriction (TAC) with ligation, and pressure overload leads to the occurrence of cardiac hypertrophy and Cl. The mice were produced at the Medical Research Centre of the University of Navarra (CIMA), under the direction of Dr Aránzazu González Miqueo.
Eight-week-old mice were administered 3.5×10^10 particles of adeno-associated virus type 9 that encoded either the fluorescent reporter td-Tomato (Aav-dt-T) alone, or the reporter and the peptide DECA-11. At 12 weeks of age, an echocardiographic check-up (baseline) was performed and at week 13 they underwent surgery in which the aorta was ligated (TAC animals) or not (Sham animals).
That same week they were sent to the UCM animal facility. Next, the mice were heparinised and anaesthetised and then sacrificed by cervical dislocation, at a rate of one per day, and a thoracotomy was performed to remove the heart which was mounted through the aorta into a cannula connected to a Langendorff apparatus for enzymatic dissociation of the cardiac myocytes. After removal of the heart, said heart was cannulated through the aorta and placed in a Langendorff apparatus. First, the hearts were perfused with modified Tyrode's solution (composition in mM: 136 NaCI, 4 KCI, 2 MgCl2, 1.8 CaCl2, 10 HEPES, 10 glucose, 3 pyruvic acid and 0.1 thiamine, pH=7.4 with NaOH) bubbled with oxygen and at 37°C for 3-5 minutes. Subsequently, they were perfused for another 8 minutes with the same solution without CaCl2. After 1-2 minutes, the heart stops beating. Next, they were perfused with Tyrode's solution without CaCl2 supplemented with 120 u/ml collagenase type II from Worthington and 0.5 u/ml protease XIV from Sigma. Lastly, the hearts were perfused with a solution called KB of the following composition (mM): 25 KCI, 10 KH2PO4, 2 MgCI2, 0.5 EGTA-K, 5 HEPES-K, 100 glutamic acid, 10 aspartic acid, 20 taurine, 5 creatine and 10 glucose (pH=7.2 with KOH). After this process has been completed, the heart was detached from the cannula and shaken in aliquots of KB solution where the myocytes were disintegrated and stored in the refrigerator for at least one hour before electrophysiological recordings were started.
Capacitance is an indirect and reliable measure of cell size. As can be observed, there was no significant difference in the capacitance of myocytes from Sham animals, had they been infected with Ad-td-Tomato (control) or with Aav-DECA-11.
To record INa in mouse cardiomyocytes, the composition of the external solution was (mM): 4 NaCl, 1 MgCl2, 1 CaCl2, 0.1 CdCl2, 133.5 CsCl, 20 HEPES and 11 glucose (pH=7.35 with CsOH) and the solution that filled the recording micropipette was (mM): 10 NaF, 110 CsF, 20 CsCl, 10 HEPES and 10 EGTA (pH 7.35 with CsOH). All other protocols and conditions were the same as those used for recording INa in human iPSC-derived cardiomyocytes (according to Example 2.3).
As indicated above, IK1 was also recorded in mouse cardiomyocytes from all four groups. […] In fact, the density of IK1 in TAC animals pretreated with DECA-11 is not different from that recorded in Sham animals.

[4] = cardiomyocytes from Sham animals
[5] = cardiomyocytes from TAC animals

Sequence | effect on the minimal promoter of the human SCN5A gene (luciferase) [1] | effect on the minimal promoter of the human KCNJ2 gene (luciferase) [2] | capacitance of myocytes ([3]; TAC animals, vs untreated TAC animals) | IK1 [3, 4] | density of INa [3, 4] | IK1 [3, 5] | density of INa [3, 5]
RFTRESLAAIE (listed as Homo sapiens) [SEQ ID NO: 3, 11-amino acid peptide, amino acids 15-25 of human Nav1.5] | no significant effect | protranscriptional effect |  |  |  |  | 
RFTRESLAAIE [DECA-11, RFTRESLAAIE] |  |  | significantly lower | significantly increases IK1 | increased the density of INa | significantly increases IK1 | significantly and markedly increased the density of INa
